{"source": "patent US20240262826A1", "about": "“WILD TYPE KIT INHIBITORS” (Blueprint Medicines Corporation, priority 2022, published 2024)", "target": "wild type c-kit (Homo sapiens (Human), UniProt P10721)", "sequence (P10721 26-976)": "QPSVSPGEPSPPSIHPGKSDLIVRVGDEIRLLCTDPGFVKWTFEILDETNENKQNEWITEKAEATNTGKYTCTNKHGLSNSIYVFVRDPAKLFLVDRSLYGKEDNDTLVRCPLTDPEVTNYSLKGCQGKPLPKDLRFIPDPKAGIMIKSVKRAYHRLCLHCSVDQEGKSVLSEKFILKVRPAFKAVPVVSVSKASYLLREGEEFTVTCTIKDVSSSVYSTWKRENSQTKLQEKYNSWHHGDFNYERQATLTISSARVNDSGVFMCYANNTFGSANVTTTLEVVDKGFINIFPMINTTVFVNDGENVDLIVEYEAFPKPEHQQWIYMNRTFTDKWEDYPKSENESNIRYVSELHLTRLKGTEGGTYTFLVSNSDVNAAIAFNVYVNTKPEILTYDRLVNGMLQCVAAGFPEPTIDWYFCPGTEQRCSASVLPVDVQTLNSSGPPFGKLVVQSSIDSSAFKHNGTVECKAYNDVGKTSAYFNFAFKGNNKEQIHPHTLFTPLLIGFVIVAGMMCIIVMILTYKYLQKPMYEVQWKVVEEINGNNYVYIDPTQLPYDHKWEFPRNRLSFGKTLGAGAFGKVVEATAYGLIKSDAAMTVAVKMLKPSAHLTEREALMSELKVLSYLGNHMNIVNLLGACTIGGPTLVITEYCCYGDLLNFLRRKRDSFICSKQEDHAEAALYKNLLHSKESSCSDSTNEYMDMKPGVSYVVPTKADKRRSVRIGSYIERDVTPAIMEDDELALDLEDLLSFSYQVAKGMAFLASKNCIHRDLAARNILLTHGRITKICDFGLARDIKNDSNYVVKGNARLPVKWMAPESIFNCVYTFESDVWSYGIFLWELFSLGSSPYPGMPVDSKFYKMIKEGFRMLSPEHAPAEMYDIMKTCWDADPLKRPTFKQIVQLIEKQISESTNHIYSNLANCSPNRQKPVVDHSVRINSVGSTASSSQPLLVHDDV", "assay": "PathScan phospho c-kit (Tyr719) sandwich ELISA in SCF-stimulated M-07e cells (pKIT assay)", "assay_type": "cell-based", "settings": "ELISA assay (values not marked *)", "in_short": "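Tyr719-phosphorylated c-kit was measured by colorimetric (TMB) sandwich ELISA in lysates of M-07e cells. Cells were starved 4 h without serum or GM-CSF, dosed 60 min at 37 °C with compound (8 points, duplicate, 0.25% DMSO), and stimulated 10 min with human SCF (500 ng/mL as added). IC50 values came from 4-parameter logistic regression.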"}
{"smiles": "Cc1nn([C@H](C)[C@H](C)O)cc1-c1ccn2ncc(C(=O)Nc3cc(-c4nnn(C5CC5)n4)c(F)cc3Cl)c2c1", "note": "(single isomer, unassigned) [Example 289, N-(2-chloro-5-(2-cyclopropyl-2H-tetrazol-5-yl)-4-fluorophenyl)-5-(1-((2R,3S)-3-hydroxybutan-2-yl)-3-methyl-1H-pyrazol-4-yl)pyrazolo[1,5-a]pyridine-3-carboxamide or N-(2-chloro-5-(2-cyclopropyl-2H-tetrazol-5-yl)-4-fluorophenyl)-5-(1-((2S,3R)-3-hydroxybutan-2-yl)-3-methyl-1H-pyrazol-4-yl)pyrazolo[1,5-a]pyridine-3-carboxamide]", "values": [{"measurement": "IC50", "value": 0.6, "unit": "nM"}]}
{"smiles": "COCCNc1ccn2ncc(C(=O)Nc3cc(-c4nnn(CCCC(F)(F)F)n4)ccc3C)c2c1", "note": "[Example 116, 5-((2-methoxyethyl)amino)-N-(2-methyl-5-(2-(4,4,4-trifluorobutyl)-2H-tetrazol-5-yl)phenyl)pyrazolo[1,5-a]pyridine-3-carboxamide]", "values": [{"measurement": "IC50", "value": 3.2, "unit": "nM"}]}
{"smiles": "Cc1ccc(-c2nnn(C)n2)cc1NC(=O)c1cnn2ccc(-c3cnn(CC(C)(C)O)c3)cc12", "note": "[Example 48, 5-(1-(2-hydroxy-2-methylpropyl)-1H-pyrazol-4-yl)-N-(2-methyl-5-(2-methyl-2H-tetrazol-5-yl)phenyl)pyrazolo[1,5-a]pyridine-3-carboxamide]", "values": [{"measurement": "IC50", "value": 3.6, "unit": "nM"}]}
{"smiles": "[2H]C([2H])([2H])c1ccc(-c2nnn(C3CN(C(=O)OC)C3)n2)cc1NC(=O)c1cnn2ccc(NCCOC)cc12", "note": "[Example 118, methyl 3-(5-(3-(5-((2-methoxyethyl)amino)pyrazolo[1,5-a]pyridine-3-carboxamido)-4-(methyl-d3)phenyl)-2H-tetrazol-2-yl)azetidine-1-carboxylate]", "values": [{"measurement": "IC50", "value": 22.7, "unit": "nM"}]}
{"smiles": "COC(=O)N1CC(n2nnc(-c3ccc(Cl)c(NC(=O)c4cnn5cc(N6CCOCC6)ccc45)c3)n2)C1", "note": "[Example 163, methyl 3-(5-(4-chloro-3-(6-morpholinopyrazolo[1,5-a]pyridine-3-carboxamido)phenyl)-2H-tetrazol-2-yl)azetidine-1-carboxylate]", "values": [{"measurement": "IC50", "value": 9.3, "unit": "nM"}]}
{"smiles": "CCn1nnc(-c2cc(NC(=O)c3cnn4ccc(-c5cn(CC(C)(C)O)nc5C)cc34)c(Cl)cc2F)n1", "note": "[Example 265, N-(2-chloro-5-(2-ethyl-2H-tetrazol-5-yl)-4-fluorophenyl)-5-(1-(2-hydroxy-2-methylpropyl)-3-methyl-1H-pyrazol-4-yl)pyrazolo[1,5-a]pyridine-3-carboxamide]", "values": [{"measurement": "IC50", "value": 0.8, "unit": "nM"}]}
{"smiles": "Cc1cc(C)c(-c2nnn(C3CC(F)(F)C3)n2)cc1NC(=O)c1cnn2ccc(N3CCOCC3)cc12", "note": "[Example 156, N-(5-(2-(3,3-difluorocyclobutyl)-2H-tetrazol-5-yl)-2,4-dimethylphenyl)-5-morpholinopyrazolo[1,5-a]pyridine-3-carboxamide]", "values": [{"measurement": "IC50", "value": 22.1, "unit": "nM"}]}
{"smiles": "Cn1nnc(-c2ccc(F)c(NC(=O)c3cnn4ccc(-c5cnn(CC(C)(C)O)c5)cc34)c2)n1", "note": "[Example 213, N-(2-fluoro-5-(2-methyl-2H-tetrazol-5-yl)phenyl)-5-(1-(2-hydroxy-2-methylpropyl)-1H-pyrazol-4-yl)pyrazolo[1,5-a]pyridine-3-carboxamide]", "values": [{"measurement": "IC50", "value": 16, "unit": "nM"}]}
{"smiles": "Cc1cc(F)c(-c2nnn(C3CC3)n2)cc1NC(=O)c1cnn2ccc(-c3cn(C[C@H](C)O)nc3C)cc12", "note": "[Example 256, (S)-N-(5-(2-cyclopropyl-2H-tetrazol-5-yl)-4-fluoro-2-methylphenyl)-5-(1-(2-hydroxypropyl)-3-methyl-1H-pyrazol-4-yl)pyrazolo[1,5-a]pyridine-3-carboxamide]", "values": [{"measurement": "IC50", "value": 0.5, "unit": "nM"}]}
{"smiles": "Nc1ccn2ncc(C(=O)Nc3cc(-c4nnn(CC5CC5(F)F)n4)ccc3Cl)c2c1", "note": "(stereo not shown) [Example 27, 5-amino-N-(2-chloro-5-(2-((2,2-difluorocyclopropyl)methyl)-2H-tetrazol-5-yl)phenyl)pyrazolo[1,5-a]pyridine-3-carboxamide]", "values": [{"measurement": "IC50", "value": 19.3, "unit": "nM"}]}
{"smiles": "COC(=O)N1CC(n2nnc(-c3ccc(C)c(NC(=O)c4cnn5cc(N6CCOCC6)ccc45)c3)n2)C1", "note": "[Example 159, methyl 3-(5-(4-methyl-3-(6-morpholinopyrazolo[1,5-a]pyridine-3-carboxamido)phenyl)-2H-tetrazol-2-yl)azetidine-1-carboxylate]", "values": [{"measurement": "IC50", "value": 20.1, "unit": "nM"}]}
{"smiles": "Cc1cc(F)c(-c2nnn(C3CC3)n2)cc1NC(=O)c1cnn2ccc(-c3cn(C[C@@H](C)O)nc3C)cc12", "note": "[Example 255, (R)-N-(5-(2-cyclopropyl-2H-tetrazol-5-yl)-4-fluoro-2-methylphenyl)-5-(1-(2-hydroxypropyl)-3-methyl-1H-pyrazol-4-yl)pyrazolo[1,5-a]pyridine-3-carboxamide]", "values": [{"measurement": "IC50", "value": 0.3, "unit": "nM"}]}
{"smiles": "COC(=O)N1CC(n2nnc(-c3ccc(C)c(NC(=O)c4cnn5ccc(N6CCN7CCC[C@@H]7C6)cc45)c3)n2)C1", "note": "[Example 75, methyl (R)-3-(5-(3-(5-(hexahydropyrrolo[1,2-a]pyrazin-2(1H)-yl)pyrazolo[1,5-a]pyridine-3-carboxamido)-4-methylphenyl)-2H-tetrazol-2-yl)azetidine-1-carboxylate]", "values": [{"measurement": "IC50", "value": 9.6, "unit": "nM"}]}
{"smiles": "Cc1ccc(-c2nnn([C@H]3C[C@H](CO)C3)n2)cc1NC(=O)c1cnn2ccccc12", "note": "[Example 200, N-(5-(2-((1r,3r)-3-(hydroxymethyl)cyclobutyl)-2H-tetrazol-5-yl)-2-methylphenyl)pyrazolo[1,5-a]pyridine-3-carboxamide]", "values": [{"measurement": "IC50", "value": 16.9, "unit": "nM"}]}
{"smiles": "COCCNc1ccn2ncc(C(=O)Nc3cc(-c4nnn(C[C@H]5CC5(F)F)n4)ccc3C)c2c1", "note": "(single isomer, unassigned) [Example 124, (R)-N-(5-(2-((2,2-difluorocyclopropyl)methyl)-2H-tetrazol-5-yl)-2-methylphenyl)-5-((2-methoxyethyl)amino)pyrazolo[1,5-a]pyridine-3-carboxamide or (S)-N-(5-(2-((2,2-difluorocyclopropyl)methyl)-2H-tetrazol-5-yl)-2-methylphenyl)-5-((2-methoxyethyl)amino)pyrazolo[1,5-a]pyridine-3-carboxamide]", "values": [{"measurement": "IC50", "value": 1.8, "unit": "nM"}]}
{"smiles": "Cc1ccc(-n2ncc(C3CC(F)(F)C3)n2)cc1NC(=O)c1cnn2ccccc12", "note": "[Example 161, N-(5-(4-(3,3-difluorocyclobutyl)-2H-1,2,3-triazol-2-yl)-2-methylphenyl)pyrazolo[1,5-a]pyridine-3-carboxamide]", "values": [{"measurement": "IC50", "value": 9, "unit": "nM"}]}
{"smiles": "COC[C@@](C)(O)Cn1cc(-c2ccn3ncc(C(=O)Nc4cc(-c5nnn(C6CC6)n5)c(F)cc4C)c3c2)c(C)n1", "note": "(single isomer, unassigned) [Example 249, (S)-N-(5-(2-cyclopropyl-2H-tetrazol-5-yl)-4-fluoro-2-methylphenyl)-5-(1-(2-hydroxy-3-methoxy-2-methylpropyl)-3-methyl-1H-pyrazol-4-yl)pyrazolo[1,5-a]pyridine-3-carboxamide or (R)-N-(5-(2-cyclopropyl-2H-tetrazol-5-yl)-4-fluoro-2-methylphenyl)-5-(1-(2-hydroxy-3-methoxy-2-methylpropyl)-3-methyl-1H-pyrazol-4-yl)pyrazolo[1,5-a]pyridine-3-carboxamide]", "values": [{"measurement": "IC50", "value": 0.7, "unit": "nM"}]}
{"smiles": "Cc1ccc(-c2nnn(C3CN(S(=O)(=O)CCOCC(F)F)C3)n2)cc1NC(=O)c1cnn2ccccc12", "note": "[Example 176, N-(5-(2-(1-((2-(2,2-difluoroethoxy)ethyl)sulfonyl)azetidin-3-yl)-2H-tetrazol-5-yl)-2-methylphenyl)pyrazolo[1,5-a]pyridine-3-carboxamide]", "values": [{"measurement": "IC50", "value": 47.9, "unit": "nM"}]}
{"smiles": "CC(C)(O)Cn1cc(-c2ccn3ncc(C(=O)Nc4cc(-n5nnc(C6CC6)n5)ccc4F)c3c2)cn1", "note": "[Example 217, N-(5-(5-cyclopropyl-2H-tetrazol-2-yl)-2-fluorophenyl)-5-(1-(2-hydroxy-2-methylpropyl)-1H-pyrazol-4-yl)pyrazolo[1,5-a]pyridine-3-carboxamide]", "values": [{"measurement": "IC50", "value": 8.1, "unit": "nM"}]}
{"smiles": "Cc1nnn(-c2ccc(Cl)c(NC(=O)c3cnn4ccc(-c5cnn(CC(C)(C)O)c5)cc34)c2)n1", "note": "[Example 212, N-(2-chloro-5-(5-methyl-2H-tetrazol-2-yl)phenyl)-5-(1-(2-hydroxy-2-methylpropyl)-1H-pyrazol-4-yl)pyrazolo[1,5-a]pyridine-3-carboxamide]", "values": [{"measurement": "IC50", "value": 5.6, "unit": "nM"}]}
{"smiles": "COCCNc1ccn2ncc(C(=O)Nc3cc(-c4nnn(C5CN(C(=O)OC)C5)n4)ccc3C)c2c1C", "note": "[Example 45, methyl 3-(5-(3-(5-((2-methoxyethyl)amino)-4-methylpyrazolo[1,5-a]pyridine-3-carboxamido)-4-methylphenyl)-2H-tetrazol-2-yl)azetidine-1-carboxylate]", "values": [{"measurement": "IC50", "value": 70.2, "unit": "nM"}]}
{"smiles": "O=C(Nc1cc(-c2nnn(C3CC3)n2)ccc1Cl)c1cnn2ccc(-c3cnn(CC4(O)CCOCC4)c3)cc12", "note": "[Example 236, N-(2-chloro-5-(2-cyclopropyl-2H-tetrazol-5-yl)phenyl)-5-(1-((4-hydroxytetrahydro-2H-pyran-4-yl)methyl)-1H-pyrazol-4-yl)pyrazolo[1,5-a]pyridine-3-carboxamide]", "values": [{"measurement": "IC50", "value": 0.6, "unit": "nM"}]}
{"smiles": "COC(=O)N1CC(n2nnc(-c3ccc(C)c(NC(=O)c4cnn5ccc(N6CCC(F)(F)CC6)cc45)c3)n2)C1", "note": "[Example 147, methyl 3-(5-(3-(5-(4,4-difluoropiperidin-1-yl)pyrazolo[1,5-a]pyridine-3-carboxamido)-4-methylphenyl)-2H-tetrazol-2-yl)azetidine-1-carboxylate]", "values": [{"measurement": "IC50", "value": 31.6, "unit": "nM"}]}
{"smiles": "CCNc1ccn2ncc(C(=O)Nc3cc(-c4nnn(C5CN(C(=O)OC)C5)n4)ccc3C)c2c1", "note": "[Example 127, methyl 3-(5-(3-(5-(ethylamino)pyrazolo[1,5-a]pyridine-3-carboxamido)-4-methylphenyl)-2H-tetrazol-2-yl)azetidine-1-carboxylate]", "values": [{"measurement": "IC50", "value": 30.2, "unit": "nM"}]}
{"smiles": "COC(=O)N1CC(n2nnc(-c3ccc(C)c(NC(=O)c4cnn5ccc(NCCO)cc45)c3)n2)C1", "note": "[Example 142, Methyl 3-(5-(3-(5-((2-hydroxyethyl)amino)pyrazolo[1,5-a]pyridine-3-carboxamido)-4-methylphenyl)-2H-tetrazol-2-yl)azetidine-1-carboxylate]", "values": [{"measurement": "IC50", "value": 17.1, "unit": "nM"}]}
